# Data taken from paper PMC4492579, “Potent and Selective Triazole-Based Inhibitors of the Hypoxia-Inducible Factor Prolyl-Hydroxylases with Activity in the Murine Brain” (PLoS ONE, 2015).
# Structures can show the parent of a compound that is named as a salt.
# Key:
# RCC4 cells = assay: Immunoblotting of HIF1α hydroxylation in VHL-defective RCC4 cells; type: cell-based, human; conditions: immunoblot
# Procedure: Human cell lines (RCC4, HeLa, Hep3B, MCF-7 and U2OS) were cultured in DMEM (D6546-500ML; Sigma Aldrich) each supplemented with 10% fetal bovine serum (F7524-500ML; Sigma Aldrich), 2 mM L-glutamine (G7513- 100ML; Sigma Aldrich), 50 units/ml of penicillin, and 50 μg/ml of streptomycin (P0781-100ML; Sigma Aldrich). The RCC4 cell line was a gift from C.H.C.M. Buys (University of Groningen, [2]), the HeLa and Hep3B cell lines were from the European Collection of Cell Cultures (ECACC), the MCF-7 cell line was from the American Type Culture Collection (ATCC) and the U2OS cell line was a gift from S.Galey (ICRF Clare Hall Laboratories, United Kingdom). Cells were treated either with DMSO (control) or compounds (dissolved in DMSO) and added directly into the cell culture medium to the desired final concentration for 4–5 h as previously described.
# Cells were extracted using urea/SDS buffer (6.7 M urea, 10 mM Tris-HCl pH 6.8, 10% glycerol and 1% SDS) and processed for immunoblotting as described. The following primary antibodies were used for immunoblotting: mouse monoclonal HIF1α antibody clone 54 (610958, BD Transduction Laboratories, 1:1000), rabbit polyclonal HIF1α hydroxy-Pro402 antibody (07–1585, Millipore, 1:1000), rabbit monoclonal HIF1α hydroxy-Pro564 antibody clone D43B5 (3434S, Cell Signaling, 1:500), mouse monoclonal HIF1α hydroxy-Asn803 antibody (a kind gift from Dr M. K. Lee, Republic of Korea, 1:4000), mouse monoclonal PHD2 antibody clone 76a (1:10), mouse monoclonal FIH antibody clone 162c (1:200) and β-actin/HRP (clone AC15, Abcam). HRP-conjugated swine polyclonal anti-rabbit IgG (P0399, Dako), and goat polyclonal anti-mouse IgG (P0447, Dako) were used as secondary antibodies.
# In this cell line, the extent of the differential HIF1α prolyl hydroxylation at the N-terminal and C-terminal oxygen-dependent degradation domains (HyPro402 and HyPro564, respectively), as well as HIF1α asparaginyl hydroxylation at the C-terminal transactivation domain (HyAsn803) can be interrogated by immunoblotting using hydroxylation specific antibodies.
# FBXL11 (KDM2A) = molecular target: T1, FBXL11 (KDM2A) (Homo sapiens, UniProt Q9Y2K7); assay: KDM AlphaScreen assay, FBXL11
# T1 sequence (Q9Y2K7 1-1162): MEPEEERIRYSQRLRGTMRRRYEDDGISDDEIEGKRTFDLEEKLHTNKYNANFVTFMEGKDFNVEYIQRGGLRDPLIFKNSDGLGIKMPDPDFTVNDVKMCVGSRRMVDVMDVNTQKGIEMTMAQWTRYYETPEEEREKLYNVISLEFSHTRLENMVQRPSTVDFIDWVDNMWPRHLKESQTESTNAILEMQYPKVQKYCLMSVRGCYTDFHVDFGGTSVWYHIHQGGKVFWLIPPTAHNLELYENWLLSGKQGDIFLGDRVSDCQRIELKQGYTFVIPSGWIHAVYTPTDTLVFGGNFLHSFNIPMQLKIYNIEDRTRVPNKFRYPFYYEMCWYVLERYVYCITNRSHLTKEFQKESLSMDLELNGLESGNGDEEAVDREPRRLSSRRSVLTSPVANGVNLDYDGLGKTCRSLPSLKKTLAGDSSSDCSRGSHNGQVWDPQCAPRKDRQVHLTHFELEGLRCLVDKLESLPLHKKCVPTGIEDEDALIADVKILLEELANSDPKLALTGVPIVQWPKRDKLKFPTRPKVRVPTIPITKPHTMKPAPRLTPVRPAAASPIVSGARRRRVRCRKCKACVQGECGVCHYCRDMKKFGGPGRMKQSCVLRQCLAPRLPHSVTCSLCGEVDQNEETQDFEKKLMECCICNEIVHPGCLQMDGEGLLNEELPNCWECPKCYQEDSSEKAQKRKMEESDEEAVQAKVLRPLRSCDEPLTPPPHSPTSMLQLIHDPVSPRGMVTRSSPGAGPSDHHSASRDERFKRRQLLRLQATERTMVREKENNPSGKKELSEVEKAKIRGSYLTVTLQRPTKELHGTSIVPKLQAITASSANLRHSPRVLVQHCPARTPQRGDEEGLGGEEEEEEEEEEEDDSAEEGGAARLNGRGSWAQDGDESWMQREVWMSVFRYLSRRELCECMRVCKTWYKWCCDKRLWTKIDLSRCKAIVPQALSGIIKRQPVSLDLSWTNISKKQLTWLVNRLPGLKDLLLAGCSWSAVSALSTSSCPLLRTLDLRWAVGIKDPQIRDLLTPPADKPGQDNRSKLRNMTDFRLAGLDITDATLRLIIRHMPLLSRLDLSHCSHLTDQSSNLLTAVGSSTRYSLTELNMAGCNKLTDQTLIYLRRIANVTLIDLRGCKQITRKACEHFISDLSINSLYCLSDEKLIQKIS
# Procedure: Inhibition assays for PHD2 (AlphaScreen) [9], the KDMs (AlphaScreen) [17], BBOX [18] and FTO [19] were carried out as previously described. […] IC50 values were calculated using nonlinear regression with normalized dose-response fit using GraphPad Prism 5.
Compound,"HIF1α prolyl-hydroxylation (HyPro402, HyPro564) (RCC4 cells)",IC50 (FBXL11 (KDM2A)) [µM],HIF1α asparaginyl-hydroxylation (HyAsn803) (RCC4 cells; 50 μM)
"O=C(O)c1ccc(-n2[nH]cc(-n3ccnn3)c2=O)nc1 [compound 1, 6-(5-oxo-4-(1H-1,2,3-triazol-1-yl)-2,5-dihydro-1H-pyrazol-1-yl)pyridine-3-carbocylic acid hydrochloride]",block prolyl-hydroxylation of HIF1α at both NODD (HyPro402) and CODD (HyPro564),20,
"CC(C)(C)OC(=O)c1ccc(-n2[nH]cc(-n3ccnn3)c2=O)nc1 [IOX4, t-Butyl 6-(5-oxo-4-(1H-1,2,3-triazol-1-yl)-2,5-dihydro-1H-pyrazol-1-yl)nicotinate]",block prolyl-hydroxylation of HIF1α at both NODD (HyPro402) and CODD (HyPro564),20,some apparent inhibition
